pIC50: −log10 of the molar value. Where two headings read alike, the source gives them in different places.

The target of one data set is T1, human liver FBPase (Homo sapiens, UniProt P09467).
T1 sequence (P09467 2-338 limits assumed): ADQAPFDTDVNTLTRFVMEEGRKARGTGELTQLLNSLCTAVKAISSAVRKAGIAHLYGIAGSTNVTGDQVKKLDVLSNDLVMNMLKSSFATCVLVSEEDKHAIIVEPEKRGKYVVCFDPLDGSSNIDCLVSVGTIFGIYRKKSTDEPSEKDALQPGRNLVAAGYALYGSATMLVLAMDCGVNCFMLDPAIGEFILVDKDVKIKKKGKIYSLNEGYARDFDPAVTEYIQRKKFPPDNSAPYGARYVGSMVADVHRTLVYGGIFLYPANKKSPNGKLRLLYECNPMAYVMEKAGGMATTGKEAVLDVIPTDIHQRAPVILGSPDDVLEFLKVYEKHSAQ
Nature of the data set: Inhibition of Human Liver FBPase.

Data set [1] relates to human liver microsomes (P450 isozymes CYP3A4, CYP1A2, CYP2C9). Nature of the data set: Identification of the P450 Isozyme Involved in the Activation. In kind it is in vitro ADME. The settings on record: 0-100 μM P450 isozyme inhibitor. As for the experimental part: Prodrugs are evaluated for human microsome-catalyzed conversion to parent compound in the absence and presence of specific inhibitors of three major P450 isozymes: ketoconazole (CYP3A4), furafylline (CYP1A2), and sulfaphenazole (CYP2C9).
Methods: Reaction (0.5 ml@37° C.) consist of 0.2 M KH2PO4, 13 mM glucose-6-phosphate, 2.2 mM NADP^+, 1 unit of glucose-6-phosphate dehydrogenase, 0-2.5 mg/ml human microsomal protein (In Vitro Technologies, In.), […], and 0-100 μM P450 isozyme inhibitor. Reactions are stopped by addition of methanol to a concentration of 60%, filtered ([…]), and lyophilized. Samples are resuspended in HPLC buffer (10 mM phosphate pH 5.5, 2.5 mM octyl-triethylammonium), loaded onto a YMC C8 HPLC column (250×4.6 mm), and eluted with a methanol gradient to 80%. Formuation of parent drug is confirmed by co-elution with an authentic parent drug standard.
Results: Prodrug is converted readily to parent drug in human liver microsomes.

The target of another data set is T2, rat liver FBPase (Rattus norvegicus, UniProt P19112).
T2 construct: made in house; host or cells: E. coli BL21
T2 sequence (P19112 2-363 limits assumed): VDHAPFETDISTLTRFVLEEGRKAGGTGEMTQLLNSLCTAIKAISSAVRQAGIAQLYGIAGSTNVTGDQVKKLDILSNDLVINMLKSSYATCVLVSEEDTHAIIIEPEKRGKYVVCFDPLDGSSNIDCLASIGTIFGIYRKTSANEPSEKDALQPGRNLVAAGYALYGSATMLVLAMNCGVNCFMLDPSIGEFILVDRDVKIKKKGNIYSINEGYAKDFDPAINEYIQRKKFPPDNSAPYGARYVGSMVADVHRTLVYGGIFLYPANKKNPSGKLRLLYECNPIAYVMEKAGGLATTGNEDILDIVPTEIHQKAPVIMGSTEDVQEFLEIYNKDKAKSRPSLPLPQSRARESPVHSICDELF
Description: Inhibition of Rat Liver FBPase. The data set is classed as biochemical. Conditions: assay identical to human liver FBPase; read-out: IC50 for AMP, rat liver FBPase. As for the experimental part: Recombinant FBPase is purified as described (El-Maghrabi, M. R., and Pilkis, S. J. (1991) Biochem. Biophys. Res. Commun. 176, 137-144) The enzyme assay is identical to that described above for human liver FBPase. The IC50 for AMP is 20 μM.

Description for human liver FBPase: Enzymatic activity was measured spectrophotometrically in reactions that coupled the formation of product (fructose-6-phosphate) to the reduction of dimethylthiazoldiphenyltetrazolium bromide (MTT) via NADP^+ and phenazine methosulfate (PMS), using phosphoglucose isomerase and glucose 6-phosphate dehydrogenase as the coupling enzymes. Reaction mixtures (200 μl) were made up in 96-well microtitre plates, and consisted of 50 mM Tris-HCl, pH 7.4, 100 mM KCl, 5 mM EGTA, 2 mM MgCl2, 0.2 mM NADP, 1 mg/ml BSA, 1 mM MTT, 0.6 mM PMS, 1 unit/ml phosphoglucose isomerase, 2 units/ml glucose 6-phosphate dehydrogenase, and 0.150 mM substrate (fructose-1,6-bisphosphate). Inhibitor concentrations were varied from 0.01 μM to 10 μM. Reactions were started by the addition of 0.002 units of pure hlFBPase, and were monitored for 7 minutes at 590 nm in a Molecular Devices Plate Reader (37° C.).

On to `O=[N+]([O-])c1cc(-c2ccc(P(=O)(O)O)o2)cc([N+](=O)[O-])c1` [Compound 1.01, 5-(3,5-Dinitrophenyl)-2-furanphosphonic Acid], for which the pIC50 on human liver FBPase is 6.51.
Regarding `CC(=O)N1CCN(c2ccc(OCC3COC(Cn4ccnc4)(c4ccc(Cl)cc4Cl)O3)cc2)CC1` (stereo not drawn) [Ketoconazole], the “inhibition of formation of parent drug from prodrug by P450 isozyme inhibitor” value (“inhibition of formation of parent drug” below) in data set [1] is “inhibit the formation of parent drugs in a dose-dependent fashion”.
The molecule `O=P(O)(O)c1ccc(-c2ccc(Cl)cc2Cl)o1` [Compound 2.02] had a pIC50 against human liver FBPase of 5.52.
As to `Cc1nc2c([nH]1)c(=O)n(C)c(=O)n2Cc1ccco1` [fusafylline], in data set [1], the “inhibition of formation of parent drug” value was “no significant inhibition”.
`COc1ccc(Cl)cc1-c1ccc(P(=O)(O)O)o1` [Compound 1.03] showed a pIC50 at human liver FBPase of 6.30.
On the same count and under the same terms, the figure for `COc1ccc(CN(C(C)=O)c2ccc(N)cc2)cc1-c1ccc(P(=O)(O)O)o1` [Compound 4.51] is 4.92; for `COc1ccc(CNc2ccc(NC(C)=O)cc2)cc1-c1ccc(P(=O)(O)O)o1` [Compound 4.50] it is 5.19; for `O=P(O)(O)c1ccc(-c2ccc(F)cc2)o1` [Compound 2.01, 5-(4-Fluorophenyl)-2-furanphosphonic Acid] it is 5.66.
Still for that read-out and setting: the figure for `Nc1cc(-c2ccc(P(=O)(O)O)o2)ccc1Br` [Compound 3.01, 5-(4-Bromo-3-aminophenyl)-2-furanphosphonic Acid] is 5.26; for `COc1c(Br)cccc1C(=O)OCP(=O)(O)O` [Compound 12.01, Phosphonomethyl 3-Bromo-2-methoxybenzoate] it is 5.38.
`Nc1c(-c2ccc(P(=O)(O)O)o2)cc([N+](=O)[O-])cc1[N+](=O)[O-]` [Compound 1.02] had a pIC50 on human liver FBPase of 5.74.
Consider `O=C(NCP(=O)(O)O)c1ccc(Br)o1` [Compound 8.01, N-(Phosphonomethyl)-5-bromofuran-2-carboxamide], for which, at human liver FBPase, the pIC50 is 5.40.
The molecule `O=[N+]([O-])c1cc(COCP(=O)(O)O)cc([N+](=O)[O-])c1` [Compound 13.02] showed a pIC50 against human liver FBPase of 5.05.
`COc1cc(Cl)ccc1C(=O)OCP(=O)(O)O` [Compound 11.01, Phosphonomethyl 4-Chloro-2-methoxybenzoate]: the negative-log IC50 (pIC50) on human liver FBPase is 5.55.
On to `Nc1ccc(S(=O)(=O)Nc2ccnn2-c2ccccc2)cc1` [sulfaphenazole], for which, in data set [1], the “inhibition of formation of parent drug” value is given as “no significant inhibition”.
On to `COc1ccc(CNc2ccc(N)cc2)cc1-c1ccc(P(=O)(O)O)o1` [Compound 4.49], for which, on human liver FBPase, the pIC50 is 6.49.
Consider `COc1ccc(CNc2ccc(O)cc2)cc1-c1ccc(P(=O)(O)O)o1` [Compound 4.48], for which the pIC50 at human liver FBPase is 6.85.
Take `Nc1ncnc2c1ncn2[C@@H]1O[C@H](COP(=O)(O)O)[C@@H](O)[C@H]1O` [AMP, reference compound]: the pIC50 is 6.00 at human liver FBPase (read-out: IC50 for AMP, human liver FBPase, text value for reference AMP) and 4.70 on rat liver FBPase.
`COc1ccc(CNc2ccccc2)cc1-c1ccc(P(=O)(O)O)o1` [Compound 4.46] gave a pIC50 against human liver FBPase of 5.52.
On the same count and under the same terms, for `O=P(O)(O)C#Cc1ccccc1` [Compound 16.01, 1-Phosphono-2-phenylacetylene] the value was 4.05; for `O=C(OCP(=O)(O)O)c1ccc(Br)o1` [Compound 11.02], 5.19; for `O=C(NCP(=O)(O)O)c1cc([N+](=O)[O-])cc([N+](=O)[O-])c1` [Compound 8.14], 5.40.
In turn, `COc1cc(COCP(=O)(O)O)ccc1Br` [Compound 13.01, 4-Bromo-3-methoxyphenylmethoxymethylphosphonic acid] had a pIC50 against human liver FBPase of 4.96.

For the origin of these results see US7371739B2, “Aryl fructose-1,6-bisphosphatase inhibitors” (Metabasis Therapeutics, Inc., priority 2000, dated 2008).
